Assay results: PubChem BioAssay (NCI)
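GI50: concentration for 50% inhibition of growth. TGI denotes the concentration required for complete inhibition of growth.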

Experiments:
Test in all cases: DTP human tumour cell line panel, 384-well format
IGROV1 ovarian = system: IGROV1 ovarian
UO-31 renal = system: UO-31 renal
CAKI-1 renal = system: CAKI-1 renal
SK-MEL-28 melanoma = system: SK-MEL-28 melanoma
T-47D breast = system: T-47D breast
SN12C renal = system: SN12C renal
HCT-15 colon = system: HCT-15 colon
PC-3 prostate = system: PC-3 prostate
SNB-75 CNS = system: SNB-75 CNS
MALME-3M melanoma = system: MALME-3M melanoma
OVCAR-3 ovarian = system: OVCAR-3 ovarian
HCT-116 colon = system: HCT-116 colon
M14 melanoma = system: M14 melanoma
ACHN renal = system: ACHN renal
UACC-62 melanoma = system: UACC-62 melanoma
HT29 colon = system: HT29 colon
KM12 colon = system: KM12 colon
SNB-19 CNS = system: SNB-19 CNS
UACC-257 melanoma = system: UACC-257 melanoma
MOLT-4 leukemia = system: MOLT-4 leukemia
RXF 393 renal = system: RXF 393 renal
NCI-H226 lung = system: NCI-H226 lung
U251 glioblastoma = system: U251 glioblastoma
NCI-H322M lung = system: NCI-H322M lung
SK-OV-3 ovarian = system: SK-OV-3 ovarian
TK-10 renal = system: TK-10 renal
SK-MEL-2 melanoma = system: SK-MEL-2 melanoma
MDA-MB-435 melanoma = system: MDA-MB-435 melanoma
NCI-H522 lung = system: NCI-H522 lung
HOP-92 NSCLC = system: HOP-92 NSCLC
EKVX NSCLC = system: EKVX NSCLC
COLO 205 colon = system: COLO 205 colon
BT-549 breast = system: BT-549 breast
SW-620 colon = system: SW-620 colon
SF-539 CNS = system: SF-539 CNS
A498 renal = system: A498 renal
MDA-MB-231 breast = system: MDA-MB-231 breast
NCI-H460 NSCLC = system: NCI-H460 NSCLC
DU-145 prostate = system: DU-145 prostate
MDA-MB-468 breast = system: MDA-MB-468 breast
HS 578T breast = system: HS 578T breast
NCI-H23 lung = system: NCI-H23 lung
SR leukemia = system: SR leukemia
OVCAR-8 ovarian = system: OVCAR-8 ovarian
SF-295 CNS = system: SF-295 CNS
HOP-62 NSCLC = system: HOP-62 NSCLC
SF-268 CNS = system: SF-268 CNS
SK-MEL-5 melanoma = system: SK-MEL-5 melanoma
K-562 leukemia = system: K-562 leukemia
MCF7 breast = system: MCF7 breast
OVCAR-4 ovarian = system: OVCAR-4 ovarian
786-0 renal = system: 786-0 renal
HL-60(TB) leukemia = system: HL-60(TB) leukemia
A549 NSCLC = system: A549 NSCLC
OVCAR-5 ovarian = system: OVCAR-5 ovarian

SMILES: Cc1cc(C)c(CNC(=O)c2cc(Cl)c3c(c2C)O[C@@](C)(C2CCC(N(C)C)CC2)O3)c(=O)[nH]1 (stereo not given in full)
- GI50 (IGROV1 ovarian): 51 µM
- TGI (IGROV1 ovarian): > 100 µM
- GI50 (UO-31 renal): 63.1 µM
- TGI (UO-31 renal): > 100 µM
- GI50 (CAKI-1 renal): 19.1 µM
- TGI (CAKI-1 renal): 39.2 µM
- GI50 (SK-MEL-28 melanoma): 83 µM
- TGI (SK-MEL-28 melanoma): > 100 µM
- GI50 (T-47D breast): > 100 µM
- TGI (T-47D breast): > 100 µM
- GI50 (SN12C renal): 76.6 µM
- TGI (SN12C renal): > 100 µM
- GI50 (HCT-15 colon): 71.1 µM
- TGI (HCT-15 colon): > 100 µM
- GI50 (PC-3 prostate): 56.3 µM
- TGI (PC-3 prostate): > 100 µM
- GI50 (SNB-75 CNS): 18.6 µM
- TGI (SNB-75 CNS): 60.3 µM
- GI50 (MALME-3M melanoma): 25.1 µM
- TGI (MALME-3M melanoma): 56.9 µM
- GI50 (OVCAR-3 ovarian): 72 µM
- TGI (OVCAR-3 ovarian): > 100 µM
- GI50 (HCT-116 colon): 38.6 µM
- TGI (HCT-116 colon): > 100 µM
- GI50 (M14 melanoma): 38.2 µM
- TGI (M14 melanoma): > 100 µM
- GI50 (ACHN renal): > 100 µM
- TGI (ACHN renal): > 100 µM
- GI50 (UACC-62 melanoma): 32.6 µM
- TGI (UACC-62 melanoma): > 100 µM
- GI50 (HT29 colon): 21.3 µM
- TGI (HT29 colon): 48.7 µM
- GI50 (KM12 colon): 59.4 µM
- TGI (KM12 colon): > 100 µM
- GI50 (SNB-19 CNS): > 100 µM
- TGI (SNB-19 CNS): > 100 µM
- GI50 (UACC-257 melanoma): 22.7 µM
- TGI (UACC-257 melanoma): 51.8 µM
- GI50 (MOLT-4 leukemia): 29.2 µM
- TGI (MOLT-4 leukemia): 77.5 µM
- GI50 (RXF 393 renal): 7.55 µM
- TGI (RXF 393 renal): 21.2 µM
- GI50 (NCI-H226 lung): 44.3 µM
- TGI (NCI-H226 lung): > 100 µM
- GI50 (U251 glioblastoma): 72.9 µM
- TGI (U251 glioblastoma): > 100 µM
- GI50 (NCI-H322M lung): > 100 µM
- TGI (NCI-H322M lung): > 100 µM
- GI50 (SK-OV-3 ovarian): > 100 µM
- TGI (SK-OV-3 ovarian): > 100 µM
- GI50 (TK-10 renal): 33.4 µM
- TGI (TK-10 renal): > 100 µM
- GI50 (SK-MEL-2 melanoma): 17.4 µM
- TGI (SK-MEL-2 melanoma): 45.6 µM
- GI50 (MDA-MB-435 melanoma): 73.4 µM
- TGI (MDA-MB-435 melanoma): > 100 µM
- GI50 (NCI-H522 lung): > 100 µM
- TGI (NCI-H522 lung): > 100 µM
- GI50 (HOP-92 NSCLC): 40 µM
- TGI (HOP-92 NSCLC): > 100 µM
- GI50 (EKVX NSCLC): 48.9 µM
- TGI (EKVX NSCLC): > 100 µM
- GI50 (COLO 205 colon): > 100 µM
- TGI (COLO 205 colon): > 100 µM
- GI50 (BT-549 breast): 19 µM
- TGI (BT-549 breast): 45 µM
- GI50 (SW-620 colon): > 100 µM
- TGI (SW-620 colon): > 100 µM
- GI50 (SF-539 CNS): 35 µM
- TGI (SF-539 CNS): > 100 µM
- GI50 (A498 renal): 20.4 µM
- TGI (A498 renal): 37.1 µM
- GI50 (MDA-MB-231 breast): > 100 µM
- TGI (MDA-MB-231 breast): > 100 µM
- GI50 (NCI-H460 NSCLC): 37.2 µM
- TGI (NCI-H460 NSCLC): > 100 µM
- GI50 (DU-145 prostate): 81.1 µM
- TGI (DU-145 prostate): > 100 µM
- GI50 (MDA-MB-468 breast): 24.9 µM
- TGI (MDA-MB-468 breast): 73.2 µM
- GI50 (HS 578T breast): 13.8 µM
- TGI (HS 578T breast): 32.7 µM
- GI50 (NCI-H23 lung): 46.8 µM
- TGI (NCI-H23 lung): > 100 µM
- GI50 (SR leukemia): 19.8 µM
- TGI (SR leukemia): 34.1 µM
- GI50 (OVCAR-8 ovarian): > 100 µM
- TGI (OVCAR-8 ovarian): > 100 µM
- GI50 (SF-295 CNS): 35.1 µM
- TGI (SF-295 CNS): > 100 µM
- GI50 (HOP-62 NSCLC): > 100 µM
- TGI (HOP-62 NSCLC): > 100 µM
- GI50 (SF-268 CNS): 45.4 µM
- TGI (SF-268 CNS): > 100 µM
- GI50 (SK-MEL-5 melanoma): 17.6 µM
- TGI (SK-MEL-5 melanoma): 37.2 µM
- GI50 (K-562 leukemia): 14.9 µM
- TGI (K-562 leukemia): 30.5 µM
- GI50 (MCF7 breast): 44.9 µM
- TGI (MCF7 breast): > 100 µM
- GI50 (OVCAR-4 ovarian): > 100 µM
- TGI (OVCAR-4 ovarian): > 100 µM
- GI50 ([…]-0 renal): 16.1 µM
- TGI (786-0 renal): 32 µM
- GI50 (HL-60(TB) leukemia): 15.4 µM
- TGI (HL-60(TB) leukemia): 37.6 µM
- GI50 (A549 NSCLC): 76.2 µM
- TGI (A549 NSCLC): > 100 µM
- GI50 (OVCAR-5 ovarian): > 100 µM
- TGI (OVCAR-5 ovarian): > 100 µM
